Measurements published in US8841309B2, “Substituted pyrazines and their use in the treatment of disease” (Boehringer Ingelheim International GmbH, priority 2012, dated 2014).

Each compound was assayed against T1, ENaC (Mus musculus, UniProt Q61180+Q9WU38+Q9WU39) (assay: Ussing chamber: short circuit current (I_sc) in mouse kidney M-1 cells, amiloride-sensitive). Settings: compound applied to apical solution, 37° C.
T1 construct: Mouse kidney M-1 cells were cultivated in DMEM containing 5% FCS and 5 μM dexamethasone; endogenous in cells; host or cells: mouse kidney M-1 cells
T1 sequence (Q61180 1-699): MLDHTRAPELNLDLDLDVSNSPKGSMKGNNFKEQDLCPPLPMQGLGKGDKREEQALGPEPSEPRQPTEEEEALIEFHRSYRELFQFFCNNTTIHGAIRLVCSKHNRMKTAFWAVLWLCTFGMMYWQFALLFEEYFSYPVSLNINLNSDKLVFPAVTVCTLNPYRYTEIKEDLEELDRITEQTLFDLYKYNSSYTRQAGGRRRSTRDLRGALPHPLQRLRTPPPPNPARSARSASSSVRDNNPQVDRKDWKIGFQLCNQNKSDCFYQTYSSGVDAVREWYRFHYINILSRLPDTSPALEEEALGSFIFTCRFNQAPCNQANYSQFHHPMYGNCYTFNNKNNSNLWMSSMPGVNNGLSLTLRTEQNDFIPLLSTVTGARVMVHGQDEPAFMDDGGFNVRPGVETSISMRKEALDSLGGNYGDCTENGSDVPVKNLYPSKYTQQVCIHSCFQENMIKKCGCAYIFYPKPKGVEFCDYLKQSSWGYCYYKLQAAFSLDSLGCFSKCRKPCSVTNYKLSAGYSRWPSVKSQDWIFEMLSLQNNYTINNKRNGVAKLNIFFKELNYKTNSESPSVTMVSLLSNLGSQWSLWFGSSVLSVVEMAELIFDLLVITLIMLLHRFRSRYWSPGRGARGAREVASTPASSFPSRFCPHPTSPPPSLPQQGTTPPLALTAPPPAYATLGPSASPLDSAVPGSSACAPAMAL
T1 sequence (Q9WU38 1-638): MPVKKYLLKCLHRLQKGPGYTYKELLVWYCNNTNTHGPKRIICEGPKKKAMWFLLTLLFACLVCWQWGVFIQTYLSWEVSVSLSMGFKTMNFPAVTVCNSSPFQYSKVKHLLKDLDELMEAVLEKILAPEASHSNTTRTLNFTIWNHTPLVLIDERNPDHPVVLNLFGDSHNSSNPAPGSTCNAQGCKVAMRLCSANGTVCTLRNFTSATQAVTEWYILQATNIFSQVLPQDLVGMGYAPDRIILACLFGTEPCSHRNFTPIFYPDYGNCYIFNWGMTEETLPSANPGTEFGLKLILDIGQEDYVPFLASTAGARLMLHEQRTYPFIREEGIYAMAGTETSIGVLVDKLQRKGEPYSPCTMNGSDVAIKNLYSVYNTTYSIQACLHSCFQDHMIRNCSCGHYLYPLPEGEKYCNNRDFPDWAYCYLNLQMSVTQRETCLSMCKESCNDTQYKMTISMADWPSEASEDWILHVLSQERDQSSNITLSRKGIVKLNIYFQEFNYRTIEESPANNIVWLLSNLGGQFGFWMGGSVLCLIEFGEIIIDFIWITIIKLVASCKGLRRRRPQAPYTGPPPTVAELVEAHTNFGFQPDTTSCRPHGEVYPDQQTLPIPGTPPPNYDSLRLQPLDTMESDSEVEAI
T1 sequence (Q9WU39 1-655): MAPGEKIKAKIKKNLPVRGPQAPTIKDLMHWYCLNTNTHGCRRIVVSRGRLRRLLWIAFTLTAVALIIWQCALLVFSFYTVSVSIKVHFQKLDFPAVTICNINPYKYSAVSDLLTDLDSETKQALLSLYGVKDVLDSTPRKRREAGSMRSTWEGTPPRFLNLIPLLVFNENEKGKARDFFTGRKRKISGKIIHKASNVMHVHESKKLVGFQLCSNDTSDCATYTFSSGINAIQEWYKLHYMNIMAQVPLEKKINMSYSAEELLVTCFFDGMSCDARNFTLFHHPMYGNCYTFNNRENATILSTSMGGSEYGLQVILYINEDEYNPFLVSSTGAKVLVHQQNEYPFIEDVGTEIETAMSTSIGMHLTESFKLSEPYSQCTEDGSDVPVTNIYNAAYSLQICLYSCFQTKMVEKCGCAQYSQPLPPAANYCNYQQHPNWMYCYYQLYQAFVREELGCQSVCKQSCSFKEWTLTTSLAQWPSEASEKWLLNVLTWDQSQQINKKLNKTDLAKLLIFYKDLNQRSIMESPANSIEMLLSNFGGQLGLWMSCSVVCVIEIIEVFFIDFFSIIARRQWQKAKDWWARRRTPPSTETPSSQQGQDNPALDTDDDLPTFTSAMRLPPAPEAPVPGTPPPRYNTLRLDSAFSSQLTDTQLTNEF
Assay type: cell-based
Description: Ussing Chamber: Mouse kidney M-1 cells were cultivated in DMEM containing 5% FCS and 5 μM dexamethasone for 10 to 12 days on polyester transwell filters. Filters were inserted into a teflon-coated well-plate which fit into the in-house ussing chamber system. Prior to measurement the medium of M-1 cells was replaced with Caco-2 transport buffer (Invitrogen, Germany). During measurements, the Ussing chamber temperature was kept at 37° C. Short circuit currents (I_sc) were measured in the voltage-clamp mode using an in-house built amplifier (Boehringer Ingelheim, Biberach) with the software package Lab View for data acquisition and analysis. The transepithelial electrical resistance (TEER) was determined by the application of voltage steps of ±5 mV every 5 sec. Compounds were administered at a final concentration of 3 μM or at increasing concentrations (1-3-10 μM) to the apical solution. At the end of each experiment the amiloride sensitive I_SC was measured by adding 3 μM amiloride to the apical compartment. Results are expressed as inhibition in percent of the amiloride effect or as IC50.

SMILES | IC50 [nM]
NC(=NC(=O)c1nc(Cl)c(N)nc1N)N[C@@H]1C[N+]2(Cc3ccc(SC(F)(F)F)cc3)CCC1CC2 [Example 48] | 23
COC(=O)c1ccccc1NC(=O)C[N+]1(C)CCC(NC(N)=NC(=O)c2nc(Cl)c(N)nc2N)CC1 (stereo not drawn) [Example 72.3] | 22
NC(=NC(=O)c1nc(Cl)c(N)nc1N)N[C@@H]1C[N+]2(CC(=O)NCC3CCOCC3)CCC1CC2 [Example 76] | 39
CCOC(=O)N1CCC(NC(=O)C[N+]23CCC(CC2)[C@H](NC(N)=NC(=O)c2nc(Cl)c(N)nc2N)C3)CC1 [Example 64] | 76
N#Cc1ccc(CNC(=O)C[N+]23CCC(CC2)[C@H](NC(N)=NC(=O)c2nc(Cl)c(N)nc2N)C3)cc1 [Example 63] | 30
NC(=NC(=O)c1nc(Cl)c(N)nc1N)N[C@@H]1C[N+]2(Cc3cc(F)cc(F)c3)CCC1CC2 [Example 36] | 30
NC(=NC(=O)c1nc(Cl)c(N)nc1N)N[C@@H]1C[N+]2(Cc3ccncc3)CCC1CC2 [Example 45] | 279
COC(=O)c1ccc(C[N+]2(C)CCC(NC(N)=NC(=O)c3nc(Cl)c(N)nc3N)CC2)cc1 (stereo not drawn) [Example 70.1] | 64
CCNC(=O)C[N+]1(C)CCC[C@H](N/C(N)=N/C(=O)c2nc(Cl)c(N)nc2N)C1 (mixture of isomers) [Example 70.6] | 46
NC(=NC(=O)c1nc(Cl)c(N)nc1N)N[C@@H]1C[N+]2(Cc3ccc(Cl)cc3)CCC1CC2 [Example 15] | 18
CC(C)(C)OC(=O)C1CCN(C(=O)C[N+]23CCC(CC2)[C@H](NC(N)=NC(=O)c2nc(Cl)c(N)nc2N)C3)CC1 [Example 67, (S)-1-[2-(4-tert-butoxycarbonyl-piperidin-1-yl)-2-oxo-ethyl]-3-[N′-(3,5-diamino-6-chloro-pyrazine-2-carbonyl)-guanidino]-1-azonia-bicyclo[2.2.2]octane; chloride] | 40
NC(=NC(=O)c1nc(Cl)c(N)nc1N)N[C@@H]1C[N+]2(CC(=O)NCC3(c4ccccc4)CCOCC3)CCC1CC2 [Example 74] | 15
COc1ccccc1C[N+]12CCC(CC1)[C@H](NC(N)=NC(=O)c1nc(Cl)c(N)nc1N)C2 [Example 22] | 92
C[N+]1(Cc2ccccc2)CCC[C@H](N/C(N)=N/C(=O)c2nc(Cl)c(N)nc2N)C1 (stereo in doubt) [Example 71, (S)-1-Benzyl-3-[N′-(3,5-diamino-6-chloro-pyrazine-2-carbonyl)-guanidino]-1-methyl-piperidinium chloride] | 81
CC(C)=CC[N+]12CCC(CC1)[C@H](N/C(N)=N/C(=O)c1nc(Cl)c(N)nc1N)C2 [Example 69, (S)-3-[N′-(3,5-Diamino-6-chloro-pyrazine-2-carbonyl)-guanidino]-1-(3-methyl-but-2-enyl)-1-azoniabicyclo[2.2.2]octane chloride] | 188
NC(=NC(=O)c1nc(Cl)c(N)nc1N)N[C@@H]1C[N+]2(CC(=O)Nc3ccccc3)CCC1CC2 [Example 58] | 25
CCNC(=O)C[N+]1(C)CCC[C@@H](NC(N)=NC(=O)c2nc(Cl)c(N)nc2N)C1 (stereo partly drawn) [Example 70.3] | 260

SMILES | IC50 [nM]
COc1cc(C[N+]23CCC(CC2)C(N/C(N)=N/C(=O)c2nc(Cl)c(N)nc2N)C3)cc(OC)c1OC (stereo not drawn) [Example 2, 3-[N′-(3,5-Diamino-6-chloro-pyrazine-2-carbonyl)-guanidino]-1-(3,4,5-trimethoxybenzyl)-1-azoniabicyclo[2.2.2]octane chloride] | 126
COc1cccc(C[N+]23CCC(CC2)[C@H](NC(N)=NC(=O)c2nc(Cl)c(N)nc2N)C3)c1 [Example 16] | 14
N/C(=N\C(=O)c1nc(Cl)c(N)nc1N)N[C@@H]1C[N+]2(Cc3ccc4ccccc4n3)CCC1CC2 [Example 11, (S)-3-[N′-(3,5-Diamino-6-chloro-pyrazine-2-carbonyl)-guanidino]-1-quinolin-2-ylmethyl-1-azoniabicyclo[2.2.2]octane chloride] | 29
NC(=O)c1ccc(C[N+]23CCC(CC2)[C@H](NC(N)=NC(=O)c2nc(Cl)c(N)nc2N)C3)cc1 [Example 25] | 693
CC[N+]1(CC(=O)Nc2cccc(F)c2)CCC(NC(N)=NC(=O)c2nc(Cl)c(N)nc2N)CC1 (stereo not drawn) [Example 70.7] | 31
CCNC(=O)C(c1ccccc1)[N+]12CCC(CC1)[C@H](NC(=N)NC(=O)c1nc(Cl)c(N)nc1N)C2 (stereo partly drawn) [Example 68.1, (S)-3-[N′-(3,5-Diamino-6-chloro-pyrazine-2-carbonyl)-guanidino]-1-(ethylcarbamoyl-phenyl-methyl)-1-azonia-bicyclo[2.2.2]octane bromide] | 18
NC(=NC(=O)c1nc(Cl)c(N)nc1N)N[C@@H]1C[N+]2(Cc3ccccc3OC(F)(F)F)CCC1CC2 [Example 54] | 69
COc1cc(C[N+]23CCC(CC2)[C@H](NC(N)=NC(=O)c2nc(Cl)c(N)nc2N)C3)cc(OC)c1 [Example 28] | 80
NC(=NC(=O)c1nc(Cl)c(N)nc1N)N[C@@H]1C[N+]2(CC(=O)N3CCN(c4ccccn4)CC3)CCC1CC2 [Example 62] | 20
CC#CC[N+]12CCC(CC1)[C@H](NC(N)=NC(=O)c1nc(Cl)c(N)nc1N)C2 [Example 23] | 172
N/C(=N\C(=O)c1nc(Cl)c(N)nc1N)N[C@@H]1C[N+]2(Cc3ccc(F)cc3)CCC1CC2 [Example 14, (S)-3-[N′-(3,5-Diamino-6-chloro-pyrazine-2-carbonyl)-guanidino]-1-(4-fluoro-benzyl)-1-azoniabicyclo[2.2.2]octane chloride] | 28
C[N+]1(Cc2ccccc2)CC[C@H](NC(N)=NC(=O)c2nc(Cl)c(N)nc2N)C1 (stereo partly drawn) [Example 71.2] | 113
N/C(=N\C(=O)c1nc(Cl)c(N)nc1N)N[C@@H]1C[N+]2(Cc3ccc(C(F)(F)F)nc3)CCC1CC2 [Example 12, (S)-3-[N′-(3,5-Diamino-6-chloro-pyrazine-2-carbonyl)-guanidino]-1-(6-trifluoromethyl-pyridin-3-ylmethyl)-1-azonia-bicyclo[2.2.2]octane chloride] | 63
NC(=NC(=O)c1nc(Cl)c(N)nc1N)N[C@@H]1C[N+]2(CC(=O)N3CCN(c4ncccn4)CC3)CCC1CC2 [Example 66] | 22
CC(C)NC(=O)C[N+]12CCC(CC1)[C@H](NC(N)=NC(=O)c1nc(Cl)c(N)nc1N)C2 [Example 49] | 29
C[N+]1(CC(=O)NCc2ccc(Cl)cc2)CCC[C@@H](N/C(N)=N/C(=O)c2nc(Cl)c(N)nc2N)C1 (mixture of isomers) [Example 70.5] | 45
